In assay [1] the target is T1, hVR1 (Homo sapiens, UniProt Q8NER1).
T1 construct: expressed in transfected cells; host or cells: CHO K1 cells (ECACC), stably transfected
The experiment in a line: Functional test on VR1, FLIPR Ca2+ influx in transfected CHO K1 cells, capsaicin. The format is cell-based, human being. The arrangement: key to Ki (human being) [nM] Cap: agonist / partial agonist / no effect: AG=agonist; pAG=partial agonist; NE=no effect. To be noted: for Ki: capsaicin (Cap), includes values given in brackets after pAG, read-out: Ki (human being) [nM] Cap. The source says: In the process, the Ca^2+ influx is quantified in the FLIPR assay with the aid of a Ca^2+-sensitive dye (type Fluo-4, Molecular Probes Europe BV, Leiden, the Netherlands) in a fluorescent imaging plate reader (FLIPR, Molecular Devices, Sunnyvale, USA), as described hereinafter.
II. Functional Tests Carried Out on the Vanilloid Receptor (VR1)
The agonistic or antagonistic effect of the substances to be tested on the vanilloid receptor 1 (VR1) can also be determined using the following assay. In this assay, the influx of Ca^2+ through the channel is quantified with the aid of a Ca^2+-sensitive dye (type Fluo-4, Molecular Probes Europe BV, Leiden, the Netherlands) in a fluorescent imaging plate reader (FLIPR, Molecular Devices, Sunnyvale, USA).
Chinese hamster ovary cells (CHO K1 cells, European Collection of Cell Cultures (ECACC) United Kingdom) are stably transfected with the VR1 gene. For functional testing, these cells are plated out on poly-D-lysine-coated black 96-well plates having a clear base (BD Biosciences, Heidelberg, Germany) at a density of 25,000 cells/well. The cells are incubated overnight at 37° C. and 5% CO2 in a culture medium (Ham's F12 nutrient mixture, 10% by volume of FCS (foetal calf serum), 18 μg/ml of L-proline). The next day the cells are incubated with Fluo-4 (Fluo-4 2 μM, 0.01% by volume of Pluronic F127, Molecular Probes in HBSS (Hank's buffered saline solution), Gibco Invitrogen GmbH, Karlsruhe, Germany) for 30 minutes at 37° C. Subsequently, the plates are washed three times with HBSS buffer and after further incubation for 15 minutes at RT used for Ca^2+ measurement in a FLIPR assay. The Ca^2+-dependent fluorescence is measured before and after the addition of the substances to be tested (λex wavelength=488 nm, λem=540 nm). Quantification is carried out by measuring the highest fluorescence intensity (FC, fluorescence counts) over time.
The FLIPR protocol consists of 2 substance additions. First the compounds to be tested (10 μM) are pipetted onto the cells and the Ca^2+ influx is compared with the control (capsaicin 10 μM) (% activation based on the Ca^2+ signal after the addition of 10 μM of capsaicin). After 5 minutes' incubation, 100 nM of capsaicin are applied and the Ca^2+ influx is also determined.
Desensitising agonists and antagonists led to suppression of the Ca^2+ influx. The % inhibition is calculated compared to the maximum achievable inhibition with 10 μM of capsaicin.
Starting from the percentage displacement caused by different concentrations of the compounds to be tested of general formula I, IC50 inhibitory concentrations which cause a 50-per cent displacement of capsaicin were calculated. Ki values for the test substances were obtained by conversion by means of the Cheng-Prusoff equation (Cheng, Prusoff; Biochem. Pharmacol. 22, 3099-3108, 1973).
The affinity of the compounds according to the invention for the vanilloid receptor 1 (VR1/TRPV1 receptor) was determined as described hereinbefore (pharmacological methods I and II respectively).

The target of assay [2] is T1, hVR1. Nature of the assay: Functional test on human VR1, 45° C. stimulus. The format is cell-based, human being. The conditions noted are these: for IC50: read-out: IC50 (human being) [nM], 45° C.; for inhibition at 2.5 µM: read-out: IC50 (human being), 45° C.: inhibition (as a percentage).

The structures appear in SMILES notation.

T1 sequence (Q8NER1 whole entry): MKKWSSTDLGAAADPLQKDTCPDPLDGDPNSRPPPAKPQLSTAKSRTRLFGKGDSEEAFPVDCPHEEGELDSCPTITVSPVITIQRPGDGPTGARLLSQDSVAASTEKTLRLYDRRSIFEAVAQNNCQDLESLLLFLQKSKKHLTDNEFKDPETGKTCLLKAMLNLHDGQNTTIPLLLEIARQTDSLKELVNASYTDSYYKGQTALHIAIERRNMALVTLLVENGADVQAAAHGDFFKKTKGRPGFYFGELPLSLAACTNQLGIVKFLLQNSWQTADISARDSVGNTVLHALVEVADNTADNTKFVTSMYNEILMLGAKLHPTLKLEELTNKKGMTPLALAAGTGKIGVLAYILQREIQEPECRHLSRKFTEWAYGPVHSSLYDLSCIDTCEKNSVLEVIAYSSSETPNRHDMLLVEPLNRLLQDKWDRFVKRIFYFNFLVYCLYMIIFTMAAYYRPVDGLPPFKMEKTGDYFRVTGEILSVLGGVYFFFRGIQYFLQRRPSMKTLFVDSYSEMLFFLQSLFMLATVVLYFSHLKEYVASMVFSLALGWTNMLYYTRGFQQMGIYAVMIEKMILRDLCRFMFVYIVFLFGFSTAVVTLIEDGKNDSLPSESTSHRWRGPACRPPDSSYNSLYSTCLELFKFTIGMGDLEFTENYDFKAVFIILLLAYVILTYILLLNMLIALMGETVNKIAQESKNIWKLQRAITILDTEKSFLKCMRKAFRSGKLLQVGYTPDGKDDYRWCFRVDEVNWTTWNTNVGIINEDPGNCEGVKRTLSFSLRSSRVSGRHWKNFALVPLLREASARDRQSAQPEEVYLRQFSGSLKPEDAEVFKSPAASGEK

On to `CC(C)(C)c1cc(CNC(=O)Nc2cccc3cccnc23)n(-c2cccc(Cl)c2)n1` [Example 107, 1-((3-tert-butyl-1-(3-chlorophenyl)-1H-pyrazol-5-yl)methyl)-3-(quinolin-8-yl)urea], for which the Ki (usually a measure of affinity in units of concentration, obtained from inhibition or displacement) in assay [1] amounted to 22.4 nM. The half-maximal inhibitory concentration (IC50) (in general, the concentration that inhibits the measured activity by half) in assay [2] was found to be 375 nM.

With `CC(C)(C)c1cc(CNC(=O)Nc2cccc3ccc(O)cc23)n(-c2cccc(Cl)c2)n1` [Example 101, 1-((3-tert-butyl-1-(3-chlorophenyl)-1H-pyrazol-5-yl)methyl)-3-(7-hydroxynaphthalen-1-yl)urea], in assay [1], the Ki worked out at 0.5 nM. Moreover, the inhibition (in general, the change of the read-out against control, counted positive when it falls) at 2.5 µM in assay [2] stood at 46%.

Take `O=C(NCc1cc(C(F)(F)F)nn1-c1cccc(Cl)c1)Nc1cccc2ccc(O)cc12` [Example 102, 1-((1-(3-chlorophenyl)-3-(trifluoromethyl)-1H-pyrazol-5-yl)methyl)-3-(7-hydroxynaphthalen-1-yl)urea]: the Ki in assay [1] came to 0.2 nM. Also, the inhibition at 2.5 µM in assay [2] is 48%.

For the compound `CC(C(=O)NCc1cc(C(F)(F)F)nn1-c1cccc(Cl)c1)c1cccc2cnc(Cl)cc12` (stereo not shown) [Example 213, 2-(3-chloroisoquinolin-5-yl)-N-((1-(3-chlorophenyl)-3-(trifluoromethyl)-1H-pyrazol-5-yl)methyl)propanamide], the Ki in assay [1] amounted to 0.07 nM. Also, in assay [2], the IC50 turned out to be 264 nM.

Turning to `COc1ccc2cccc(C(C)C(=O)NCc3cc(C(F)(F)F)nn3-c3cccc(Cl)c3)c2c1` (stereo not shown) [Example 212, N-((1-(3-chlorophenyl)-3-(trifluoromethyl)-1H-pyrazol-5-yl)methyl)-2-(7-methoxynaphthalen-1-yl)propanamide], the Ki in assay [1] came out at 8.3 nM. Also, in assay [2], the IC50 was determined as 626 nM.

On to `CC(C(=O)NCc1cc(C(F)(F)F)nn1-c1cccc(Cl)c1)c1cccc2c1CC(O)C2` (stereo not shown) [Example 208, N-((1-(3-chlorophenyl)-3-(trifluoromethyl)-1H-pyrazol-5-yl)methyl)-2-(2-hydroxy-2,3-dihydro-1H-inden-4-yl)propanamide], for which, in assay [1], the Ki was 62.6 nM. Also, the IC50 in assay [2] amounted to 298 nM.

For the compound `CC(C(=O)NCc1cc(C(F)(F)F)nn1-c1cccc(Cl)c1)c1cccc2c1CC=C2` (stereo not shown) [Example 24, N-((1-(3-chlorophenyl)-3-(trifluoromethyl)-1H-pyrazol-5-yl)methyl)-2-(1H-inden-7-yl)propanamide], the Ki in assay [1] was 4 nM. In addition, the IC50 in assay [2] came to 686 nM.

`CC(C)(C)c1cc(CNC(=O)Nc2cccc3c2CCC3)n(-c2cccc(Cl)c2)n1` [Example 78, 1-((3-tert-butyl-1-(3-chlorophenyl)-1H-pyrazol-5-yl)methyl)-3-(2,3-dihydro-1H-inden-4-yl)urea]: in assay [1], the “Ki (human being) [nM] Cap: agonist / partial agonist / no effect” value (“Ki … agonist / partial agonist / no effect” for short) is reported as “pAG” and the Ki was 2.4 nM.

Turning to `CC(C)(C)c1cc(CNC(=O)Nc2cccc3ccncc23)n(-c2cccc(Cl)c2)n1` [Example 108, 1-((3-tert-butyl-1-(3-chlorophenyl)-1H-pyrazol-5-yl)methyl)-3-(isoquinolin-8-yl)urea], the Ki in assay [1] amounted to 0.5 nM.

Consider `CC(C)(C)c1cc(CNC(=O)Nc2ccc3c(c2)CCC3)n(-c2cc(Cl)cc(Cl)c2)n1` [Example 182, 1-((3-tert-butyl-1-(3,5-dichlorophenyl)-1H-pyrazol-5-yl)methyl)-3-(2,3-dihydro-1H-inden-5-yl)urea], for which the inhibitory constant (Ki) in assay [1] amounted to 32.8 nM.

`CC(C(=O)NCc1cc(C(F)(F)F)nn1-c1cccc(Cl)c1)c1ccc2nc(N)sc2c1` (stereo not shown) [Example 43, 2-(2-aminobenzo[d]thiazol-6-yl)-N-((1-(3-chlorophenyl)-3-(trifluoromethyl)-1H-pyrazol-5-yl)methyl)propanamide]: in assay [1], the “Ki … agonist / partial agonist / no effect” value was “pAG” and the Ki was found to be 22.9 nM.

For `O=C(NCc1cc(C(F)(F)F)nn1-c1cccc(Cl)c1)Nc1ccc2scnc2c1` [Example 97, 1-(benzo[d]thiazol-5-yl)-3-((1-(3-chlorophenyl)-3-(trifluoromethyl)-1H-pyrazol-5-yl)methyl)urea], the Ki in assay [1] is 4.9 nM. Further, in assay [2], the IC50 was found to be 396 nM.

On to `O=C(NCc1cc(C(F)(F)F)nn1-c1ccc(Cl)cc1)Nc1ccc2c(c1)CCC2` [Example 174, 1-((1-(4-chlorophenyl)-3-(trifluoromethyl)-1H-pyrazol-5-yl)methyl)-3-(2,3-dihydro-1H-inden-5-yl)urea], for which, in assay [1], the Ki was found to be 75.8 nM.

In the case of `O=C(NCc1cc(C(F)(F)F)nn1-c1ccc(OC(F)(F)F)cc1)Nc1ccc2c(c1)CCC2` [Example 180, 1-(2,3-dihydro-1H-inden-5-yl)-3-((1-(4-(trifluoromethoxy)phenyl)-3-(trifluoromethyl)-1H-pyrazol-5-yl)methyl)urea], the Ki in assay [1] came to 41 nM.

For `O=C(NCc1cc(C(F)(F)F)nn1-c1cccc(Cl)c1)Nc1c(Cl)ccc2[nH]ncc12` [Example 205, 1-(5-chloro-1H-indazol-4-yl)-3-((1-(3-chlorophenyl)-3-(trifluoromethyl)-1H-pyrazol-5-yl)methyl)urea], in assay [1], the Ki amounted to 0.8 nM.

As for `CC(C(=O)NCc1cc(C(F)(F)F)nn1-c1cccc(Cl)c1)c1ccc2cccnc2c1` (stereo not shown) [Example 72, N-((1-(3-chlorophenyl)-3-(trifluoromethyl)-1H-pyrazol-5-yl)methyl)-2-(quinolin-7-yl)propanamide], the Ki in assay [1] came out at 0.5 nM.

For `CC(C)(C)c1cc(CNC(=O)Nc2ccc3c(c2)OC(F)(F)O3)n(-c2cccc(Cl)c2)n1` [Example 187, 1-((3-tert-butyl-1-(3-chlorophenyl)-1H-pyrazol-5-yl)methyl)-3-(2,2-difluorobenzo[d][1,3]dioxol-5-yl)urea], the “Ki … agonist / partial agonist / no effect” value in assay [1] was “AG”.

As to `CCCCCn1nc(C(F)(F)F)cc1CNC(=O)C(C)c1cccc2[nH]ncc12` (stereo not shown) [Example 199, 2-(1H-indazol-4-yl)-N-((1-pentyl-3-(trifluoromethyl)-1H-pyrazol-5-yl)methyl)propanamide], in assay [1], the Ki was found to be 33.5 nM.

Regarding `CC(C(=O)NCc1cc(C(F)(F)F)nn1-c1cccc(Cl)c1)c1ccc2c(c1)CCC(C)(C)O2` (stereo not shown) [Example 189, N-((1-(3-chlorophenyl)-3-(trifluoromethyl)-1H-pyrazol-5-yl)methyl)-2-(2,2-dimethylchroman-6-yl)propanamide], the Ki in assay [1] stood at 41.2 nM.

In the case of `CC(C(=O)NCc1cc(C(F)(F)F)nn1-c1cccc(Cl)c1)c1cccc2cc(F)ccc12` (stereo not shown) [Example 211, N-((1-(3-chlorophenyl)-3-(trifluoromethyl)-1H-pyrazol-5-yl)methyl)-2-(6-fluornaphthalen-1-yl)propanamide], in assay [2], the IC50 is 154 nM.

On to `CC(C(=O)NCc1cc(C(F)(F)F)nn1-c1cccc(Cl)c1)c1ccc2c(cnn2S(C)(=O)=O)c1` (stereo not shown) [Example 191, N-((1-(3-chlorophenyl)-3-(trifluoromethyl)-1H-pyrazol-5-yl)methyl)-2-(1-(methylsulfonyl)-1H-indazol-5-yl)propanamide], for which, in assay [1], the “Ki … agonist / partial agonist / no effect” value is recorded as “pAG” and the Ki was 0.6 nM.

Consider `O=C(NCc1cc(C(F)(F)F)nn1-c1ccc(F)cc1)Nc1ccc2c(c1)CCC2` [Example 175, 1-(2,3-dihydro-1H-inden-5-yl)-3-((1-(4-fluorophenyl)-3-(trifluoromethyl)-1H-pyrazol-5-yl)methyl)urea], for which the Ki in assay [1] was 70.2 nM.

For `O=C(NCc1cc(C(F)(F)F)nn1-c1ccc(C(F)(F)F)cc1)Nc1ccc2c(c1)CCC2` [Example 179, 1-(2,3-dihydro-1H-inden-5-yl)-3-((3-(trifluoromethyl)-1-(4-(trifluoromethyl)phenyl)-1H-pyrazol-5-yl)methyl)urea], in assay [1], the Ki turned out to be 36.3 nM.

Source of the values: US8334315B2, “Substituted aromatic carboxamide and urea derivatives as vanilloid receptor ligands” (Gruenenthal GmbH, priority 2009, dated 2012).
